Earlier results on one molecule are cited in patent US6054456A, “Substituted piperazine derivatives” (Merck Sharp & Dohme Ltd., priority 1995, dated 2000).

Data set [1] concerns human 5-HT1Dα and 5-HT1Dβ receptor subtypes. Conditions: cf. WO-A-91/171174, Table 1.
The conditions of data set [2]: humans, therapeutic doses.

Molecules are shown by their SMILES.

Take `CNS(=O)(=O)Cc1ccc2[nH]cc(CCN(C)C)c2c1` [sumatriptan]: the “discrimination between the human 5-HT1Dα and 5-HT1Dβ receptor subtypes” value in data set [1] was “barely discriminates between the human 5-HT1Dα and 5-HT1Dβ receptor subtypes”. The adverse events entry in data set [2] is on record as “certain adverse cardiovascular events”.
